Data taken from patent publication US11274131B2, “IgM-mediated receptor clustering and cell modulation” (MAYO FOUNDATION FOR MEDICAL EDUCATION AND RESEARCH, priority 2007, dated 2022).

Tests used:
[1] = tested on: mouse bone marrow-derived DC; assay: Immunoblot of DAP12 and Syk phosphorylation in mouse DC; type: cell-based
Experimental: FIG. 6A to 6C is a series of histograms and pictures showing that TREM-2 is recruited into the MTAb-induced cap on mouse DC and expression of TREM-2 is important for MTAb-induced phosphorylation of the adapter DAP-12 and the protein kinase Syk. FIG. 6A: six day cultures of bone marrow-derived mouse DC were differentiated in GM-CSF and IL-4 were tagged with antibodies specific for the class II molecule IA^b (25-9-17-APC) and for TREM-2 (237916-PE) for 15 minutes prior to stimulation with the MTAb B7-DC XAb (open histograms) or with isotype control antibody sHIgM39 (filled histograms). Cells were fixed in 0.1% paraformaldehyde prior to analysis by flow cytometry. FRET between PE and APC was assessed collecting light emitted by APC following excitation of PE with a 488 nm laser. Expression of TREM-2 on the cells was assessed by staining with 237916-PE antibody alone (open histogram) or isotype control antibody (closed histogram, bottom-right panel). For FIG. 6B, mouse bone marrow-derived DC were transduced on day 2 of culture with a retrovirus expressing an […] specific for TREM-2 or a control virus containing a scrambled sequence. On day 5 of culture, the transduced cells were not treated (0′ time), activated with the isotype control antibody sHIgM39, or activated with B7-DC XAb for 5 minutes. DAP12 was immunoprecipitated from cell lysates with antibody MC457, resolved by electrophoresis, and the blotted filters were probed with the phosphotyrosine-specific antibody 4G10. FIG. 6C: the lysates used in the experiments from FIG. 6B were immunoprecipitated with the Syk-specific antibody (4D10) and analyzed by western blot for the presence of phosphotyrosine.
For transducing DC with the virus, 1 ml of supernatant containing the scrambled virus or shDNA containing dominant negative TREM-2 virus was mixed with 2 ml of RPMI. Cytokines were added to a final concentration of 10 ng/ml murine GM-CSF and 1 ng/ml murine IL-4 at day 2 of DC culture. […]
In experiments involving assessment of the phosphorylation status of various protein kinases using whole cell lysate, dendritic cells of mouse or human origin or Jurkat cells were stimulated at the indicated times with control antibody or B7-DC XAb, and were lysed on ice for 10 minutes in 1 ml buffer containing 20 mM Tris-HCl, 40 mM NaCl, 5 mM EDTA, 50 mM NaF, 30 mM Na4P2O7, 0.1% BSA, 1 mM Na3VO4, 1 mM PMSF, 5 μg/ml aprotinin, 10 μg/ml leupeptin, and 1% Triton X-100. […] Tyrosine-phosphorylated proteins were detected using the anti-phosphotyrosine specific antibody, 4G10, followed by goat anti-mouse IgG coupled to Horse Radish Peroxidase (Santa Cruz Biotechnology) and the SuperSignal detection system (Pierce Biotechnology, Rockford, Ill.). […]

matured mouse DC = assay: Antigen uptake assay, matured mouse DC; type: cell-based
Experimental: For transducing DC with the virus, 1 ml of supernatant containing the scrambled virus or shDNA containing dominant negative TREM-2 virus was mixed with 2 ml of RPMI. Cytokines were added to a final concentration of 10 ng/ml murine GM-CSF and 1 ng/ml murine IL-4 at day 2 of DC culture. Cells were maintained for another 3 days before using the DC for antigen uptake assay as mentioned above or for analysis of phosphorylation status of DAP12 and Syk proteins.
Antigen uptake experiments were carried out as described previously (Radhakrishnan et al. (2005) Proc. Natl. Acad. Sci. U.S.A. 102:11438-11443). Day 5 DC were matured with TLR ligand CpG-ODN for mouse DC, or with pI:C for human DC. The matured cells were incubated with ovalbumin labeled with FITC or APC and control antibody or B7-DC XAb for two hours, washed and analyzed by FACSCALIBUR™ (Becton Dickinson). In studies involving inhibitors, cells were pretreated 30 minutes as indicated or at 10 μM concentration prior to addition of control antibody or B7-DC XAb. In vivo antigen uptake assays involving wild type or TREM-2−/− mice were carried out by intravenous injection of 10 μg of control antibody or B7-DC XAb on three consecutive days (days −1, 0 and +1). Ovalbumin coupled to FITC was injected in the right foot pad at 1 mg/ml in PBS at […]. The draining lymph node cells were harvested 48 hours after injection of antigen, and stained with anti-mouse CD11c-PE. The data are expressed as percent green cells (ovalbumin-FITC) that are positive for CD11c.

B16-Ova cells = assay: B16-Ova tumor challenge with Ova-pulsed antibody-treated DCs; type: in vivo, mouse; conditions: mice given wild type DCs or B7DC reconstituted knockout DCs treated with antibody
Experimental: FIG. 17 is a graph depicting protection of mice from B16-Ova tumor challenge by injection of Ova-pulsed DCs expressing the Kb-peptide constructs treated with MTabs. Tumor area was measured daily, with tumor area on day 11 represented in the graph.
DCs treated with hIgM12 can induce potent anti-tumor immunity. […] A variation of this model was used to determine whether Kb-peptide expressing DCs could induce protective tumor immunity. C57BL6 mice were injected subcutaneously in the right flank with 5×10^5 B16-Ova cells, a B16 variant engineered to express ovalbumin. Wild type DCs or B7DC−/− DCs transduced with mB7DC or the Kb constructs were pulsed with 10 ug/mL ovalbumin and treated with 10 ug/mL of either hIgM12 or hIgM22, 24 hours prior to injection. Before injection, DCs were washed and resuspended in 200 μL, HBSS. 10^6 DCs were injected intravenously by tail vein concurrent to B16 injection. Three mice were used in each treatment group. Tumor area was measured daily, and mice were sacrificed when tumor area reached 289 mm^2. […] Thus, DC expressing Kb-peptide fusions were able to induce protective tumor immunity.

[2] = DC transduced with scrambled shDNA

B7-DC XAb: human monoclonal IgM from a Waldenstrom's macroglobulinemia patient that binds and cross-links B7-DC on DC
phosphorylation of DAP12 and Syk [1, 2]: proceeded in the same manner
phosphorylation of DAP12 and Syk ([1]; DC transduced with shDNA for TREM-2): absence of phosphorylation of DAP12 and Syk
phosphorylation of DAP12 and Syk ([1]; TREM-2 KO DC): not induced
phosphorylation of DAP12 and Syk ([1]; wild type DC): readily induced
antigen uptake (matured mouse DC; DC from CD40 KO mice): displayed enhanced antigen uptake
ovalbumin uptake by matured DC (matured mouse DC; [2]): enhanced ovalbumin uptake
ovalbumin uptake by matured DC (matured mouse DC; TREM-2 KO DC): did not regain the ability to take up ovalbumin
protection from tumor outgrowth (B16-Ova cells): successfully protected from tumor outgrowth
